Experimental data: patent publication US20230002357A1, “7-PYRIMIDINE-2-YL-OXY-INDAZOLE DERIVATIVES AND THEIR USE AS HERBICIDES” (SYNGENTA CROP PROTECTION AG, priority 2019, published 2023)

Experiments:
Assay type in all cases: in vivo
Details in all cases: 250 g/ha, evaluated after 13 days
[1] = tested on: Amaranthus retoflexus (AMARE); test: Post-emergence Test, glasshouse, AMARE
Outline: (§1)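 Pots were sprayed 1 day after sowing (pre-emergence) or after 8 days' growth (post-emergence) at 250 g/ha, formulated in acetone/water 50:50 with 0.5% Tween 20. Glasshouse conditions were 24/16 °C, 14 h light, 65% humidity. Damage was scored after 13 days on a 1–5 scale (5 = 81–100%).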

ABUTH [2] = test: Post-emergence Test, glasshouse, ABUTH
Outline: as §1

Setaria faberi (SETFA) [3] = test: Post-emergence Test, glasshouse, SETFA
Outline: as §1

[4] = tested on: Echinochloa crus-galli (ECHCG); test: Post-emergence Test, glasshouse, ECHCG
Outline: as §1

IPOHE [5] = test: Post-emergence Test, glasshouse, IPOHE
Outline: as §1

[6] = tested on: Amaranthus retoflexus (AMARE); test: Pre-emergence Test, glasshouse, AMARE
Outline: as §1

ABUTH [7] = test: Pre-emergence Test, glasshouse, ABUTH
Outline: as §1

Setaria faberi (SETFA) [8] = test: Pre-emergence Test, glasshouse, SETFA
Outline: as §1

[9] = tested on: Echinochloa crus-galli (ECHCG); test: Pre-emergence Test, glasshouse, ECHCG
Outline: as §1

IPOHE [10] = test: Pre-emergence Test, glasshouse, IPOHE
Outline: as §1

Row | SMILES | percentage damage caused to the plant, five-point scale, AMARE [1] | percentage damage caused to the plant, five-point scale, ABUTH (ABUTH [2]) | percentage damage caused to the plant, five-point scale, SETFA (Setaria faberi (SETFA) [3]) | percentage damage caused to the plant, five-point scale, ECHCG [4] | percentage damage caused to the plant, five-point scale, IPOHE (IPOHE [5]) | percentage damage caused to the plant, five-point scale, AMARE [6] | percentage damage caused to the plant, five-point scale, ABUTH (ABUTH [7]) | percentage damage caused to the plant, five-point scale, SETFA (Setaria faberi (SETFA) [8]) | percentage damage caused to the plant, five-point scale, ECHCG [9] | percentage damage caused to the plant, five-point scale, IPOHE (IPOHE [10])
1 | C=CCCn1nc(Cl)c2cccc(Oc3ncc(Cl)cn3)c21 [Compound 1.054] | 4 (4=61-80%) | 4 (4=61-80%) | 2 (2=21-40%) | 3 (3=41-60%) | 2 (2=21-40%) | 4 (4=61-80%) | 1 (1=0-20%) | 5 (5=81-100%) | 4 (4=61-80%) | 1 (1=0-20%)
2 | FC(F)(F)OCCn1nc(Cl)c2cccc(Oc3ncc(Cl)cn3)c21 [Compound 1.052] | 5 (5=81-100%) | 5 (5=81-100%) | 3 (3=41-60%) | 4 (4=61-80%) | 3 (3=41-60%) | 5 (5=81-100%) | 3 (3=41-60%) | 5 (5=81-100%) | 4 (4=61-80%) | 1 (1=0-20%)
3 | Cc1cnc(Oc2cccc3c(C(F)(F)F)nn(CCCC(F)(F)F)c23)nc1 [Compound 1.070] | 3 (3=41-60%) | 5 (5=81-100%) | 3 (3=41-60%) | 4 (4=61-80%) | 3 (3=41-60%) | 5 (5=81-100%) | 3 (3=41-60%) | 4 (4=61-80%) | 4 (4=61-80%) | 1 (1=0-20%)
4 | FCCCCn1nc(Cl)c2cccc(Oc3ncc(Cl)cn3)c21 [Compound 1.039] | 5 (5=81-100%) | 4 (4=61-80%) | 4 (4=61-80%) | 4 (4=61-80%) | 4 (4=61-80%) | 5 (5=81-100%) | 3 (3=41-60%) | 5 (5=81-100%) | 5 (5=81-100%) | 1 (1=0-20%)
5 | CC(C)CCn1nc(Cl)c2cccc(Oc3ncc(Cl)cn3)c21 [Compound 1.056] | 4 (4=61-80%) | 3 (3=41-60%) | 2 (2=21-40%) | 2 (2=21-40%) | 3 (3=41-60%) | 4 (4=61-80%) | 1 (1=0-20%) | 4 (4=61-80%) | 3 (3=41-60%) | 1 (1=0-20%)
6 | Cc1ccc2c(Cl)nn(CCCC(F)(F)F)c2c1Oc1ncc(Cl)cn1 [Compound 1.043, 3-chloro-7-(5-chloropyrimidin-2-yl)oxy-6-methyl-1-(4,4,4-trifluorobutyl)indazole] | 4 (4=61-80%) | 3 (3=41-60%) | 3 (3=41-60%) | 3 (3=41-60%) | 4 (4=61-80%) | 5 (5=81-100%) | 1 (1=0-20%) | 4 (4=61-80%) | 3 (3=41-60%) | 1 (1=0-20%)
